The text below walks through data of patent US20230405015A1, “SUBSTITUTED 3,6-DIHYDRO-2H-1,3,4-OXADIAZIN-2-ONES FOR THE TREATMENT OF SARCOMA” (Bayer Aktiengesellschaft, priority 2021, published 2023).

“And” between values parts separate entries of the source, which are not always exact repeats. Equal values may be shown once. “Also recorded” adds a separate entry of the source.

Assay [1] concerns human sarcoma cell line G-292 clone A141B1. Put plainly: Cell proliferation measurement in vitro (Cell Titer Glo, 72 h). The assay is classed as cell-based. As to conditions: G292, G-292 clone A141B1, 72 h, read-out: Anti-proliferation Target IC50. On the procedure: The antiproliferative activity of the compounds of the general formula (I) was examined in vitro in the human sarcoma cell line G-292 clone A141B1 (from ATCC). For this purpose, the appropriate number of cells (1000) were plated in 384-well plates with appropriate growth medium McCoy's 5a Medium Modified, FCS 10% final (Biochrom; #S 0415); and incubated at 37° C. overnight. After 24 h, cells on one plate (0 h plate) were treated with 30 μl/cavity of CTG solution (Promega Cell Titer Glo (catalogue #G755B and G756B)) and incubated at room temperature for 10 min, and luminescence was measured by means of a VICTOR V (Perkin Elmer), in order to determine cell viability on commencement of treatment. The cells on the test plate were treated with a set of compounds of the general formula (I) as indicated below and incubated at 37° C. for 72 h. The compounds were added to the cells by means of an HP D300 digital dispenser in a 10-step 2.5-fold dilution series generally starting at a maximum final drug concentration of 100 nM. As control, the cells were treated with vehicle (DMSO at 0.3% final concentration). After 72 h, the cells were treated with 30 μl/cavity of CTG solution (Promega Cell Titer Glo (catalogue #G755B and G756B)) and incubated at room temperature for 10 min, and luminescence was measured by means of a VICTOR V (Perkin Elmer), in order to determine cell viability at the end of treatment. The percentage effect on cell growth and the IC50 derived therefrom were determined for each test substance using the values from the 0 h plate (=maximum inhibition) and the DMSO control (=minimum inhibition). The IC50 values were calculated using a 4-parameter fit.

The test system of assay [2] is sarcoma patient derived xenograft model SA10199 (recurrent malignant solitary fibrous tumor). Put plainly: In vivo xenotransplantation model SA10199. Set-up: species or system mice. From the text:
(§1) The anti-tumor activities of (6S)-5-[4′-fluoro-2-(trifluoromethyl)biphenyl-4-yl]-6-methyl-3,6-dihydro-2H-1,3,4-oxadiazin-2-one was examined in murine xenotransplantation models of human cancer. For this purpose, mice were implanted subcutaneously with tumor pieces. At a mean tumor size of 20-40 mm^2 animals were randomized into treatment and control groups (at least n=10 animals/group) and treatment started with vehicle only or respective compound (formulation: 90% PEG400/10% Ethanol; application route: per os (“p.o.”), orally). The oral application volume was 10 ml/kg. In the case of twice daily treatments, the time interval between two applications per day was 6-7 h. The tumor size and the body weight were determined at least weekly. The tumor area was detected by means of an electronic caliper [length (mm)×width (mm)]. The experiment was ended when the study reached the pre-determined ethical endpoint based on German and European animal welfare regulations. In vivo anti-tumor efficacy is presented as T/C ratio at study end (Treatment/Control; mean tumor weight of treatment group/mean tumor weight of control group) in Table 2. A compound having a T/C below 0.5 is defined as active (i.e., effective). Statistical analysis was assessed using SigmaStat software. […]

Assay [3] has as its system sarcoma patient derived xenograft model SA16044 (Soft Tissue Sarcoma). Put plainly: In vivo xenotransplantation model SA16044. Set-up: species or system mice. The note with it: for T/C: SA16044 Soft Tissue Sarcoma PDX subcutaneous in mice, 10 mg/kg 2QD p.o., at study end. From the text:
The anti-tumor activities of (6S)-5-[4′-fluoro-2-(trifluoromethyl)biphenyl-4-yl]-6-methyl-3,6-dihydro-2H-1,3,4-oxadiazin-2-one was examined in murine xenotransplantation models of human cancer. For this purpose, mice were implanted subcutaneously with tumor pieces. At a mean tumor size of 20-40 mm^2 animals were randomized into treatment and control groups (at least n=10 animals/group) and treatment started with vehicle only or respective compound (formulation: 90% PEG400/10% Ethanol; application route: per os (“p.o.”), orally). The oral application volume was 10 ml/kg. In the case of twice daily treatments, the time interval between two applications per day was 6-7 h. The tumor size and the body weight were determined at least weekly. The tumor area was detected by means of an electronic caliper [length (mm)×width (mm)]. The experiment was ended when the study reached the pre-determined ethical endpoint based on German and European animal welfare regulations. In vivo anti-tumor efficacy is presented as T/C ratio at study end (Treatment/Control; mean tumor weight of treatment group/mean tumor weight of control group) in Table 2. A compound having a T/C below 0.5 is defined as active (i.e., effective). Statistical analysis was assessed using SigmaStat software. A one-way analysis of variance was performed and differences to the control were compared by a pair-wise comparison procedure (Dunn's method).
Patient-derived xenograft models established by direct transplantation of fresh human tumors are considered to more closely resemble the heterogeneity of the actual human tumor compared to xenograft models established from cell lines that have been cultured in vitro for decades. The anti-tumor activity of (6S)-5-[4′-fluoro-2-(trifluoromethyl)biphenyl-4-yl]-6-methyl-3,6-dihydro-2H-1,3,4-oxadiazin-2-one was assessed in patient-derived xenograft models of sarcoma, a tumor type consisting of many subtypes and a high medical need due to absence of approved targeted therapies. The tumor models are originating from CrownBio.

For assay [4], the system named is sarcoma patient derived xenograft model SA10245 (Fibrous histiocytoma). Put plainly: In vivo xenotransplantation model SA10245. Set-up: species or system mice.
Text: as §1

Assay [5] deals with sarcoma patient derived xenograft model SA4058 (Synovial Sarcoma). Put plainly: In vivo xenotransplantation model SA4058. Set-up: species or system mice.
Text: as §1

For assay [6], the system named is sarcoma patient derived xenograft model SA3831 (Osteosarcoma). Put plainly: In vivo xenotransplantation model SA3831. Set-up: species or system mice.
Text: as §1

On to `O=C1NN=C(c2ccc(-c3ccc(C(F)F)cc3)c(F)c2)CO1` [Example 92, 5-[4'-(Difluoromethyl)-2-fluoro[1,1'-biphenyl]-4-yl]-3,6-dihydro-2H-1,3,4-oxadiazin-2-one], for which, in assay [1], the IC50 is 0.0351 µM.
For `COCCCc1ccc(C2=NNC(=O)OC2)cc1C(F)(F)F` [Example 267, 5-[4-(3-Methoxypropyl)-3-(trifluoromethyl)phenyl]-3,6-dihydro-2H-1,3,4-oxadiazin-2-one], the IC50 in assay [1] was 0.0168 µM.
Regarding `CC(C)(C)CCc1ccc(C2=NNC(=O)OC2)cc1C(F)(F)F` [Example 269, 5-[4-(3,3-Dimethylbutyl)-3-(trifluoromethyl)phenyl]-3,6-dihydro-2H-1,3,4-oxadiazin-2-one], the IC50 in assay [1] is 0.0857 µM.
As for `O=C1NN=C(c2ccc(-c3cnn(C(F)F)c3)c(C(F)(F)F)c2)CO1` [Example 146, 5-{4-[1-(Difluoromethyl)-1H-pyrazol-4-yl]-3-(trifluoromethyl)phenyl}-3,6-dihydro-2H-1,3,4-oxadiazin-2-one], in assay [1], the IC50 is 0.0125 µM.
Still for that read-out and setting: the figure for `O=C1NN=C(c2ccc(N3CCOCC3)c(F)c2)CO1` [Example 4, 5-[3-Fluoro-4-(morpholin-4-yl)phenyl]-3,6-dihydro-2H-1,3,4-oxadiazin-2-one] is 0.103 µM; for `O=C1NN=C(c2ccc(N3CCC(F)(F)CC3)c(F)c2)CO1` [Example 1, 5-[4-(4,4-Difluoropiperidin-1-yl)-3-fluorophenyl]-3,6-dihydro-2H-1,3,4-oxadiazin-2-one] it is 0.026 µM.
In the case of `C[C@@H]1OC(=O)NN=C1c1ccc(-c2ccc(F)cc2)c(C(F)(F)F)c1` [Example 135, (6S)-5-[4'-Fluoro-2-(trifluoromethyl)biphenyl-4-yl]-6-methyl-3,6-dihydro-2H-1,3,4-oxadiazin-2-one], in assay [1], the IC50 was found to be 0.0176 µM. The “anti-tumor efficacy (in words)” value in assay [2] (SA10199 PDX in mice, versus vehicle, unpaired t-test) is listed as “significant anti-tumor efficacy; also recorded: moderate tumor-growth inhibition”; in assay [3] (SA16044 PDX in mice, versus vehicle, unpaired t-test), “significant anti-tumor efficacy; also recorded: moderate tumor-growth inhibition”; in assay [4] (SA10245 PDX in mice, versus vehicle, unpaired t-test), “non-significant signs of anti-tumor efficacy; also recorded: least sensitive model”; in assay [5] (SA4058 PDX in mice, versus vehicle, unpaired t-test), “significant anti-tumor efficacy; also recorded: strong tumor-growth inhibition”; in assay [6] (SA3831 PDX in mice, versus vehicle, unpaired t-test), “strong tumor-growth inhibition; also recorded: significant anti-tumor efficacy”. Further, the T/C in assay [2] (SA10199 Sarcoma (recurrent malignant solitary fibrous tumor) PDX subcutaneous in mice, 10 mg/kg 2QD p.o., at study end, listed as (6S)-5-[4'-fluoro-2-(trifluoromethyl)biphenyl-4-yl]-6-methyl-3,6-dihydro-2H-1,3, 10 mg/kg) was 0.34; in assay [3] (listed as (6S)-5-[4'-fluoro-2-(trifluoromethyl)biphenyl-4-yl]-6-methyl-3,6-dihydro-2H-1,3, 10 mg/kg) it was 0.33; in assay [3] (listed as (6S)-5-[4′-fluoro-2-(trifluoromethyl)biphenyl-4-yl]-6-methyl-3,6-dihydro-2H-1,3, 10 mg/kg), 0.35 and 0.33; in assay [4] (SA10245 Fibrous histiocytoma PDX subcutaneous in mice, 10 mg/kg 2QD p.o., at study end), 0.73; in assay [5] (SA4058 Synovial Sarcoma PDX subcutaneous in mice, 10 mg/kg 2QD p.o., at study end), 0.12; in assay [6] (SA3831 Osteosarcoma PDX subcutaneous in mice, 10 mg/kg 2QD p.o., at study end), 0.01.
As for `C[C@@H]1OC(=O)NN=C1c1ccc(-n2ccc(C(F)(F)F)n2)c(C(F)(F)F)c1` [Example 265, (6S)-6-Methyl-5-{3-(trifluoromethyl)-4-[3-(trifluoromethyl)-1H-pyrazol-1-yl]phenyl}-3,6-dihydro-2H-1,3,4-oxadiazin-2-one], the IC50 in assay [1] was 0.0372 µM.
Same read-out and setting: next, `Cc1cc(C2=NNC(=O)OC2)ccc1-c1ccc(F)cc1` [Example 7, 5-(4'-Fluoro-2-methylbiphenyl-4-yl)-3,6-dihydro-2H-1,3,4-oxadiazin-2-one]: 0.0496 µM; `Cc1ccc(C2=NNC(=O)OC2)cc1C(F)(F)F` [Example 139, 5-[4-Methyl-3-(trifluoromethyl)phenyl]-3,6-dihydro-2H-1,3,4-oxadiazin-2-one]: 0.193 µM; `O=C1NN=C(c2ccc(-c3ccc(F)cc3)c(C(F)(F)F)c2)CO1` [Example 3, 5-[4'-Fluoro-2-(trifluoromethyl)biphenyl-4-yl]-3,6-dihydro-2H-1,3,4-oxadiazin-2-one]: 0.0382 µM.
Take `C[C@@H]1OC(=O)NN=C1c1ccc(N2CCN(C)CC2)c(C(F)(F)F)c1` [Example 277, (6S)-6-Methyl-5-[4-(4-methylpiperazin-1-yl)-3-(trifluoromethyl)phenyl]-3,6-dihydro-2H-1,3,4-oxadiazin-2-one]: the IC50 in assay [1] was determined as 0.604 µM.
For `Cc1cc(C2=NNC(=O)OC2)ccc1-c1ccc(F)c(F)c1` [Example 8, 5-(3',4'-Difluoro-2-methylbiphenyl-4-yl)-3,6-dihydro-2H-1,3,4-oxadiazin-2-one], in assay [1], the IC50 worked out at 0.0968 µM.
